Source: patent US9849197B2, “Switching-type fluorescent nanoparticle probe, and fluorescent molecular imaging method using same” (KYOTO UNIVERSITY, priority 2011, dated 2017)

Experiment: Change in fluorescence intensity of lactosome encapsulating fluorescent dye due to change in external environment 1
Format: physicochemical
Details: lactosome encapsulating 20 mol % of the dye; for fluorescence intensity in the SDS solution: 5 wt % SDS 1:1, room temperature 30 minutes; for fluorescence intensity in the BSA solution: 5 wt % albumin (BSA) 1:1, room temperature 30 minutes; for fluorescence intensity in the plasma: plasma from male ddY mice 1:1, room temperature 30 minutes
From the text: In FIGS. 2(A) to 2(D), the horizontal axis represents wavelength and the vertical axis represents fluorescence intensity.

CC1(C)C(/C=C/C=C/C=C/C=C2\N(CCCCS(=O)(=O)O)c3ccc4ccccc4c3C2(C)C)=[N+](CCCCS(=O)(=O)[O-])c2ccc3ccccc3c21 [ICG, indocyanine green]
recovered: fluorescence intensity in the SDS solution | fluorescence intensity in the BSA solution | fluorescence intensity in the plasma

CC1(C)C(/C=C/C2=C(Cl)C(=C/C=C3/N(CCCCCC(=O)O)c4ccc5ccccc5c4C3(C)C)/CCC2)=[N+](CCO)c2ccc3ccccc3c21 [IC7-1]
recovered: fluorescence intensity in the SDS solution | fluorescence intensity in the BSA solution | fluorescence intensity in the plasma
